Results as given in US20240247215A1, “BIOMIMETIC SYSTEM AND METHOD FOR MANUFACTURING SAME” (JSR CORPORATION, priority 2021, published 2024).

Tests used:
P-gp = target: T1, P-gp (Homo sapiens, UniProt P08183); assay: Efflux ratio by P-gp: rhodamine 123 transport (AtoB/BtoA) across human cholangiocyte-like cell-containing membrane; format: in vitro ADME; settings: rhodamine 123 10 μM
T1 construct: the human cholangiocyte-like cells express P-glycoprotein (P-gp); endogenous in cells; host or cells: human cholangiocyte-like cells derived from human bile duct organoids (from human primary hepatocytes), grown as a 2D membrane on a permeable insert
T1 sequence (P08183 whole entry): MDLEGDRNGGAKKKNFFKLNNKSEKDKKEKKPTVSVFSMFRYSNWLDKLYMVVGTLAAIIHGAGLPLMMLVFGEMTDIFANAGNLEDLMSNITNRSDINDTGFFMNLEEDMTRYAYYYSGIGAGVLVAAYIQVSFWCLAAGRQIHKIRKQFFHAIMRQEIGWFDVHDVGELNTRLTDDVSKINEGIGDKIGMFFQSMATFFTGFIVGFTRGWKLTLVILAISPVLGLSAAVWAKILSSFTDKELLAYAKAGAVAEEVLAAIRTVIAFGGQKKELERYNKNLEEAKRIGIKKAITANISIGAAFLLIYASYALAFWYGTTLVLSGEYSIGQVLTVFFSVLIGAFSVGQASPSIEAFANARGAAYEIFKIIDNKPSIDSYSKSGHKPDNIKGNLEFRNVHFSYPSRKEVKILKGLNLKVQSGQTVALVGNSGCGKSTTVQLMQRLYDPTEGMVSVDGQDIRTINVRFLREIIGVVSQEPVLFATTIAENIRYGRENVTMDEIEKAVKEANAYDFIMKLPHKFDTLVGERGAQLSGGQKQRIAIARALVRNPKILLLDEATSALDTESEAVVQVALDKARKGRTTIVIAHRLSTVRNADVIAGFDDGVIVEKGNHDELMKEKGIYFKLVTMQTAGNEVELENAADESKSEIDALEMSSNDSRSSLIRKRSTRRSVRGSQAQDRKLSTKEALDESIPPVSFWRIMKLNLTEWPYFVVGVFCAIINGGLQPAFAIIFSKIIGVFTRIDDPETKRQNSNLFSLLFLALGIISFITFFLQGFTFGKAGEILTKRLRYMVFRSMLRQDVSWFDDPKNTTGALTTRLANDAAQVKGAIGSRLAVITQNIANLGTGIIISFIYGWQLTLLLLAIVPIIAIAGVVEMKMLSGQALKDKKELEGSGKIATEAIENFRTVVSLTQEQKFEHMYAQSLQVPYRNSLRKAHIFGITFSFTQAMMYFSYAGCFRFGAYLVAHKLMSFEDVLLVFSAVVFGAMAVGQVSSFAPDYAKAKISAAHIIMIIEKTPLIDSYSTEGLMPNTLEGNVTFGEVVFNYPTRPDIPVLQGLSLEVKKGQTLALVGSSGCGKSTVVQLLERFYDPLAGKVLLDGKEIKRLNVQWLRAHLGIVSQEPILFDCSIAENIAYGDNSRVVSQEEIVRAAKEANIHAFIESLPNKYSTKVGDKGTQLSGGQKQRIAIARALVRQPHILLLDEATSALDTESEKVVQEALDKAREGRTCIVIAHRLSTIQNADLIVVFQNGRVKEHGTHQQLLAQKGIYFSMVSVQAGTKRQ
Description: FIG. 4A and FIG. 4B are graphs showing the measurement results of the transport amount (AtoB) and the transport amount (BtoA). […] In addition, as shown in FIG. 4A and FIG. 4B, approximation curves were each created based on the graphs of the transport amount (AtoB) and the transport amount (BtoA), and the gradient (permeation rate) was calculated. Subsequently, the efflux ratio (Efflux Ratio (ER)) was calculated based on Formula (2).
Efflux ratio=(Permeation rate of BtoA)/(permeation rate of AtoB) (2)
FIG. 6A to FIG. 6D are graphs showing the measurement results of the transport amount (AtoB) and the transport amount (BtoA). […] Each of FIG. 6A, FIG. 6B, FIG. 6C, and FIG. 6D presents the results of using a culture medium including Matrigel (registered trademark) at a concentration of 0, 0.1, 0.5, or 2 v/v %. In addition, as shown in FIG. 6A to FIG. 6D, approximation curves were each created based on the graphs of the transport amount (AtoB) and the transport amount (BtoA), and the gradient (permeation rate) was calculated. Subsequently, the efflux ratio was calculated based on the above-described Formula (2).
FIG. 7A to FIG. 7C are graphs showing the measurement results of the transport amount (AtoB) and the transport amount (BtoA). Each of FIG. 7A, FIG. 7B, and FIG. 7C presents the results of using a container coated with Matrigel (registered trademark) at a concentration of 2, 5, or 10 v/v %. In addition, as shown in FIG. 7A to FIG. 7C, approximation curves were each created based on the graphs of the transport amount (AtoB) and the transport amount (BtoA), and the gradient (permeation rate) was calculated. Subsequently, the efflux ratio was calculated based on the above-described Formula (2).

BCRP = target: T2, BCRP (Homo sapiens, UniProt Q9UNQ0); assay: Efflux ratio of Hoechst 33342 (BCRP substrate) in biomimetic system; format: in vitro ADME; settings: Hoechst 33342 as substrate; system as Manufacturing Example 1, 15 culture days; average of four measurements
T2 construct: the human cholangiocyte-like cells further express at least one or more transporters selected from the group consisting of MRP2, BSEP, and BCRP; endogenous in cells; host or cells: human cholangiocyte-like cells (bile duct organoid derived) on a permeable insert
T2 sequence (Q9UNQ0 1-655): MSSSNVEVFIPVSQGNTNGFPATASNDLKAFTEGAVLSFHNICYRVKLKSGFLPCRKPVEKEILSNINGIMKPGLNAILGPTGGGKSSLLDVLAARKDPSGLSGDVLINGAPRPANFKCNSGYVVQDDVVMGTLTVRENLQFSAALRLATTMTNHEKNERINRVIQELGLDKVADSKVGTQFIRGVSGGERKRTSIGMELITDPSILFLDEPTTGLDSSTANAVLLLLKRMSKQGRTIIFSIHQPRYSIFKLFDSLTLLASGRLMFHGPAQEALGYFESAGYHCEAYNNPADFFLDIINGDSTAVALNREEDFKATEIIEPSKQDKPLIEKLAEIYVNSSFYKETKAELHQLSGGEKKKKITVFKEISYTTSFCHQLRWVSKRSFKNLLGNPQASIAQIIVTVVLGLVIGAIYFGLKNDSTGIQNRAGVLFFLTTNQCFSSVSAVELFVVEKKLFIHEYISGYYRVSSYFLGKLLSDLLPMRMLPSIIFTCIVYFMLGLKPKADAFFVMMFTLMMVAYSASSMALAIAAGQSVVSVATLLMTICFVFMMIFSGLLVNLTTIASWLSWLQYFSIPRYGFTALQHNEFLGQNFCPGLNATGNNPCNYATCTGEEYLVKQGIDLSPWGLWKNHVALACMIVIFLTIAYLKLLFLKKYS
Description: The efflux ratio of Hoechst 33342 (CAS number: 23491-52-3), which is a substrate for BCRP, was measured by using the biomimetic system.
Human cholangiocyte-like cells were manufactured by a method similar to that used in Experimental Example 9. In addition, a biomimetic system was manufactured in the same manner as in Manufacturing Example 1 of Experimental Example 2, except that the number of culture days was set to 15 days. The TEER of the manufactured biomimetic system was measured by the same method as that used in Experimental Example 2, and the value was 284.83 Ω·cm^2.
The transport amounts of Hoechst 33342 were measured in the same manner as in Experimental Example 3, except that Hoechst 33342 was used in place of rhodamine 123 as a substrate. Regarding Hoechst 33342, a solution obtained by dissolving the substance in deionized water to a concentration of 1% by mass was used.
FIG. 12A is a graph showing the results of measuring the transport amount (BtoA) four times, and FIG. 12B is a graph showing the results of measuring the transport amount (AtoB) four times. The axis of abscissa in the graph represents the time (minutes), and the axis of ordinate represents the amount (pmoL) of transported Hoechst 33342. The efflux ratio calculated in the same manner as in Experimental Example 3 from the average value of the results of the four measurements was about 23.0.

| Efflux ratio (P-gp; Production Example 3, Matrigel 0 v/v % in culture medium, Day 17) | Efflux ratio (P-gp; Production Example 4, Matrigel 0.1 v/v % in culture medium, Day 17) | Efflux ratio (P-gp; Production Example 5, Matrigel 0.5 v/v % in culture medium, Day 17) | Efflux ratio (P-gp; Production Example 7, Matrigel 2 v/v % in culture medium, Day 17) | Efflux ratio (P-gp; Production Example 9, insert coated with 2 v/v % Matrigel, 14 culture days) | Efflux ratio (P-gp; Production Example 10, insert coated with 5 v/v % Matrigel, 14 culture days) | Efflux ratio (P-gp; Production Example 11, insert coated with 10 v/v % Matrigel, 14 culture days) | Efflux ratio (P-gp; biomimetic system of Manufacturing Example 2, Day 17 from start of culture) | Efflux ratio (P-gp; biomimetic system of Manufacturing Example 2, Day 23 from start of culture) | Compound | Efflux ratio (BCRP) |
| --- | --- | --- | --- | --- | --- | --- | --- | --- | --- | --- |
| 1.7 | 1.7 | 2.2 | 1.3 | 4.93 | 4.70 | 3.89 | 7.3 | 11.6 | rhodamine 123 |  |
|  |  |  |  |  |  |  |  |  | CCOc1ccc(-c2nc3ccc(-c4nc5ccc(N6CCN(C)CC6)cc5[nH]4)cc3[nH]2)cc1 [Hoechst 33342] | about 23.0 |
